Measurements: patent US20230220010A1, “BROAD-SPECTRUM ANTIVIRAL PEPTIDES” (priority 2020, published 2023)
“Also recorded” adds a separate entry of the source. Square brackets hold non-standard residues; d marks the D form. Ends that are not written are not given here. Peptide text beside a SMILES is read from it.

Experiments:
[1] = system: H3N2 influenza virus; details: for EC50: influenza virus
[2] = system: HEK 293T/17 cells; assay: Cytotoxicity assay, CELLTITER-GLO, HEK cells; details: for cell viability, HEK 293T/17 cells: peptide concentrations approximately below 4 μM, about 72 hours; for cytotoxicity against HEK cells: CELLTITER-GLO, 3 days
[3] = system: Lassa pseudovirus (LASVpv); details: for EC50: 72 h
[4] = Cytotoxicity assay, ALAMARBLUE, HEK cells
[5] = system: Vero E6 cells; assay: Cytotoxicity assay, CELLTITER-GLO, Vero E6 cells; details: peptide concentrations at or below 2 μM, about 72 hours
[6] = system: HEK cells; assay: Cytotoxicity with varying serum (FBS) concentrations, HEK cells; details: for effect of serum concentration on cytotoxicity: 0-50% FBS
[7] = system: dengue virus type 2; details: read-out: EC50 against dengue virus (DENV); plaque assay
[8] = system: HEK cells; assay: Cytotoxicity assay, ALAMARBLUE, HEK cells; details: HEK cells with or without LASVpv, ALAMARBLUE
[9] = system: HEK cells; assay: Cytotoxicity with varying cell densities, HEK cells; details: 5×10^3 to 1×10^5 cells/well
[10] = system: human adenovirus 5; details: read-out: EC50 against adenovirus (AdV); plaque assay
[11] = system: Lassa pseudovirus (LASVpv); details: 1 h, 50 μM

| Compound | EC50 [1] | EC50 [3] | EC50 [4] | further results |
| --- | --- | --- | --- | --- |
| CC(C)C[C@@H](NC(=O)[C@@H](C)NC(=O)[C@@H](Cc1c[nH]c2ccccc12)NC(=O)CNC(=O)[C@@H](CCCNC(=N)N)NC(=O)[C@H](N)CCCNC(=N)N)C(=O)N[C@H](CCCNC(=N)N)C(=O)N[C@H](CC(C)C)C(=O)N[C@@H](C(=O)N[C@H](CC(C)C)C(=O)N[C@H](C)C(=O)N[C@H](Cc1ccc(O)cc1)C(N)=O)C(C)C [*arva] (H-[dR][dR]G[dW][dA][dL][dR][dL][dV][dL][dA][dY]-NH2) | 0.4 µM | – | – | – |
| CC(C)C[C@@H](NC(=O)[C@@H](Cc1c[nH]c2ccccc12)NC(=O)CNC(=O)[C@@H](CCCNC(=N)N)NC(=O)[C@H](N)CCCNC(=N)N)C(=O)N[C@H](CC(C)C)C(=O)N[C@H](CC(C)C)C(=O)N[C@H](CCCNC(=N)N)C(=O)N[C@H](CC(C)C)C(=O)N[C@H](CC(C)C)C(=O)N[C@H](CCCNC(=N)N)C(=O)N[C@H](CC(C)C)C(=O)N[C@H](CC(C)C)C(=O)N[C@H](CC(C)C)C(=O)N[C@H](CCCNC(=N)N)C(=O)N[C@H](CC(C)C)C(=O)N[C@H](CC(C)C)C(=O)N[C@H](Cc1c[nH]c2ccccc12)C(=O)NCC(=O)N[C@H](CCCNC(=N)N)C(=O)N[C@H](CCCNC(=N)N)C(N)=O [D-AHR, rrgwlllrllrlllrllwgrr] (H-[dR][dR]G[dW][dL][dL][dL][dR][dL][dL][dR][dL][dL][dL][dR][dL][dL][dW]G[dR][dR]-NH2) | – | – | – | cell viability, HEK 293T/17 cells [2]: high cell viability |
| CC(C)C[C@@H](NC(=O)[C@@H](C)NC(=O)[C@@H](CC(C)C)NC(=O)[C@@H](CCCCN)NC(=O)[C@@H](CC(C)C)NC(=O)[C@@H](CO)NC(=O)[C@@H](Cc1ccccc1)NC(=O)CNC(=O)[C@@H](CCCNC(=N)N)NC(=O)[C@H](N)CCCNC(=N)N)C(=O)N[C@H](CC(C)C)C(=O)N[C@H](CCCCN)C(=O)N[C@H](CC(=O)O)C(=O)NCC(=O)N[C@H](Cc1c[nH]c2ccccc12)C(=O)N[C@H](CC(C)C)C(=O)N[C@H](CC(C)C)C(=O)N[C@H](CC(C)C)C(=O)N[C@H](CCCNC(=N)N)C(=O)N[C@H](CC(C)C)C(=O)NCC(=O)N[C@H](Cc1ccc(O)cc1)C(=O)NCC(=O)N[C@H](CCCNC(=N)N)C(=O)N[C@H](CCCNC(=N)N)C(N)=O [D-IT1b, rrgfslklallkdgwlllrlgygrr] (H-[dR][dR]G[dF][dS][dL][dK][dL][dA][dL][dL][dK][dD]G[dW][dL][dL][dL][dR][dL]G[dY]G[dR][dR]-NH2) | – | – | – | cell viability, HEK 293T/17 cells [2]: high cell viability |
| CC(C)C[C@@H](NC(=O)[C@@H](Cc1c[nH]c2ccccc12)NC(=O)CNC(=O)[C@@H](CCCNC(=N)N)NC(=O)[C@H](N)CCCNC(=N)N)C(=O)N[C@H](CC(C)C)C(=O)N[C@H](CC(C)C)C(=O)N[C@H](CCCNC(=N)N)C(=O)N[C@H](CC(C)C)C(=O)N[C@H](CC(C)C)C(=O)N[C@H](CC(C)C)C(=O)N[C@H](Cc1c[nH]c2ccccc12)C(=O)NCC(=O)N[C@H](CCCNC(=N)N)C(=O)N[C@H](CCCNC(=N)N)C(N)=O [D-TL3, rrgwlllrlllwgrr] (H-[dR][dR]G[dW][dL][dL][dL][dR][dL][dL][dL][dW]G[dR][dR]-NH2) | – | – | – | cell viability, HEK 293T/17 cells [2]: high cell viability |
| CC(C)C[C@@H](NC(=O)[C@@H](Cc1c[nH]c2ccccc12)NC(=O)[C@@H](CCCNC(=N)N)NC(=O)[C@H](N)CCCNC(=N)N)C(=O)N[C@H](CC(C)C)C(=O)N[C@H](CC(C)C)C(=O)N[C@H](CC(C)C)C(=O)N[C@H](CC(N)=O)C(=O)N[C@H](CC(C)C)C(=O)N[C@H](CC(C)C)C(=O)N[C@H](CC(C)C)C(=O)N[C@H](CC(C)C)C(=O)N[C@H](Cc1c[nH]c2ccccc12)C(=O)N[C@H](CCCNC(=N)N)C(=O)N[C@H](CCCNC(=N)N)C(N)=O [D-TL4NdG, rrwllllnllllwrr] (H-[dR][dR][dW][dL][dL][dL][dL][dN][dL][dL][dL][dL][dW][dR][dR]-NH2) | – | – | – | cell viability, HEK 293T/17 cells [2]: high cell viability |
| CC[C@H](C)[C@H](NC(=O)CN)C(=O)NCC(=O)N[C@@H](C)C(=O)N[C@H](C(=O)N[C@@H](CC(C)C)C(=O)N[C@@H](CCCCN)C(=O)N[C@H](C(=O)N[C@@H](CC(C)C)C(=O)N[C@H](C(=O)N[C@H](C(=O)NCC(=O)N[C@@H](CC(C)C)C(=O)N1CCC[C@H]1C(=O)N[C@@H](C)C(=O)NCC(=O)N[C@H](C(=O)N[C@@H](CO)C(=O)N[C@@H](Cc1c[nH]c2ccccc12)C(=O)N[C@H](C(=O)N[C@@H](CCCCN)C(=O)N[C@@H](CCCNC(=N)N)C(=O)N[C@@H](CCCCN)C(=O)N[C@@H](CCCNC(=N)N)C(=O)N[C@@H](CCC(N)=O)C(=O)N[C@@H](CCC(N)=O)C(N)=O)[C@@H](C)CC)[C@@H](C)CC)[C@@H](C)O)[C@@H](C)O)C(C)C)C(C)C [Mel-L16G, reference compound] | – | 28 µM | 21 µM | – |
| GIGAVLKGLATGLPAGISWIKQQAQL-NH2 [MelN4, reference compound] | – | > 100 µM | > 100 µM | – |
| KDGWLLLRLGYGRR [Cterm-Cat] | – | – | – | antiviral activity against LASVpv [3]: next most active peptide |
| KLALLKDGWLLLR [Mid-Cat] | – | – | – | antiviral activity against LASVpv [3]: moderate potency |
| LALLKDGWLLL [Mid] | – | – | – | antiviral activity against LASVpv [3]: no antiviral activity |
| PLZYLRLLRGQF [TP2, reference compound] | – | – | – | activity against H3N2 [1]: some antiviral activity |
| RRGFSLKLALLKDGWLLLLRLGYGRR-NH2 [IT1-f] | 1.5 µM | 1.1 µM | 20 µM | – |
| RRGFSLKLALLKDGWLLLRLGYGRR-NH2 [IT1-b] | 2.3 µM | 1.4 µM | > 75 µM | cell viability, Vero E6 cells [5]: High cell viability; effect of serum concentration on cytotoxicity [6]: far less cytotoxic as serum concentration increases; EC50 [7]: 0.225 µM; cell viability in the presence and absence of virus [8]: varies in the presence and absence of virus; effect of cell density on cytotoxicity [9]: remained consistent as cell density increases |
| RRGFSLKLALLYRGWLLLLRLGYGRR-NH2 [IT1-c] | 1.2 µM | – | – | – |
| RRGFSLKLKLLYRGWALALRLGYGRR-NH2 [IT1-e] | 0.6 µM | 1.2 µM | > 50 µM | – |
| RRGFSLKLLLSYRGWALLRLGYGRR-NH2 [IT1-a] | 1.6 µM | 1.6 µM | 19 µM | cell viability in the presence and absence of virus [8]: varies in the presence and absence of virus |

| Compound | EC50 [1] | EC50 [3] | EC50 [4] | further results |
| --- | --- | --- | --- | --- |
| RRGFSLKLRLLYRGWGLALRLGYGRR-NH2 [IT1-d] | 0.4 µM | 1.3 µM | > 100 µM | – |
| RRGWALRLNLYYGRR-NH2 [*ARNY*, RRGWALRLNLYYGRR] | 4.5 µM | 2.2 µM | > 100 µM | cell viability in the presence and absence of virus [8]: no difference |
| RRGWALRLVLAY-NH2 [*ARVA, RRGWALRLVLAY] | 0.9 µM | 6.2 µM | > 75 µM | – |
| RRGWGLRLVLYYGRR-NH2 [*GRVY*, RRGWGLRLVLYYGRR] | 9.1 µM | 2.1 µM | – | – |
| RRGWLLLLNLLLLWGRR-NH2 [TL4N, RRGWLLLLNLLLLWGRR] | – | – | – | CC50 compared to IT1b ([2]; % greater than that of IT1b, HEK cells): over 500%; cytotoxicity against HEK cells [2]: much less cytotoxic than TL3 |
| RRGWLLLRLLLWGRR-NH2 [TL3, RRGWLLLRLLLWGRR] | – | – | – | cell viability, Vero E6 cells [5]: High cell viability; cytotoxicity in 0% FBS [6]: does display cytotoxicity; cytotoxicity in 10%, 25%, and 50% FBS [6]: completely noncytotoxic; effect of cell density on cytotoxicity [9]: increases as cell density increases |
| RRGWNLALTLTYGRR-NH2 [*NATT*, RRGWNLALTLTYGRR] | 0.7 µM | 1.2 µM | 43 µM | cell viability in the presence and absence of virus [8]: no difference |
| RRGWNLRLRLVYGRR-NH2 [*NRRV*, RRGWNLRLRLVYGRR] | 8 µM | – | 15 µM | – |
| RRGWRLNLNLYYGRR-NH2 [*RNNY*, RRGWRLNLNLYYGRR] | 2.3 µM | 2.1 µM | 19 µM | – |
| RRGWTLNLTLNYGRR-NH2 [*TNTN*, RRGWTLNLTLNYGRR] | 6.1 µM | 1.1 µM | 22 µM | – |
| RRGWVLDLVLYYGRR-NH2 [*VDVY*, RRGWVLDLVLYYGRR] | 12 µM | 5 µM | > 100 µM | – |
| RRRRRRRRRWC-NH2 [Arg9, RRRRRRRRRWC, reference compound] | 6.7 µM | > 100 µM | > 75 µM | – |
| RRWLLLLNLLLLWRR-NH2 [TL4NdG, RRWLLLLNLLLLWRR] | – | – | – | cytotoxicity against HEK cells [2]: least cytotoxic test peptide; also recorded: much less cytotoxic than TL3; also recorded: least cytotoxic peptide tested; cell viability, Vero E6 cells [5]: High cell viability; EC50 [10]: > 10 µM; effect of serum concentration on cytotoxicity [6]: essentially unchanged by serum concentration; inhibition of LASVpv at 50 μM peptide [11]: greater than 50%; effect of cell density on cytotoxicity [9]: remained consistent as cell density increases |
| RRWLLLLRLLLLWRR-NH2 [TL4dG, RRWLLLLRLLLLWRR] | – | – | – | cytotoxicity against HEK cells [2]: less cytotoxic than TL3 |
| WALRLYLGVY-NH2 [ARYV, WALRLYLGVY] | 3.7 µM | 7.9 µM | – | – |
| WVLVLRLGY-NH2 [VVRG, WVLVLRLGY] | 6.1 µM | – | – | – |
